Experimental data published in BigSolDB 2.1.

Nc1cccc(C(=O)O)c1
solubility (mole fraction)
Settings	283.15 K	288.15 K	293.15 K	298.15 K	303.15 K	308.15 K	313.15 K	318.15 K	323.15 K
in 1,4-dioxane	–	0.0319	0.035	0.0394	0.042	0.0469	0.0549	0.0627	0.0709
in acetone	0.0289	0.0295	0.0304	0.0325	0.0375	0.0414	0.0455	0.052	0.0601
in acetonitrile	0.00192	0.00225	0.00264	0.00313	0.00358	0.00452	0.00561	0.00664	0.00765
in ethanol	0.00821	0.00955	0.0107	0.0117	0.0137	0.0154	0.0182	0.0218	0.0241
in isobutanol	0.00506	0.00542	0.00599	0.00683	0.00796	0.00946	0.0113	0.0131	0.0158
in isopropanol	0.00638	0.00712	0.00801	0.00943	0.0112	0.0135	0.0165	0.0204	0.023
in isopropyl acetate	0.00459	0.00495	0.00526	0.00591	0.00674	0.00765	0.00917	0.0113	0.0135
in methanol	0.012	0.0128	0.0139	0.0145	0.0166	0.0187	0.0219	0.0254	0.0296
in methyl acetate	0.00731	0.00776	0.00841	0.00918	0.0108	0.0128	0.0149	0.0173	0.0203
in n-butanol	0.00532	0.00595	0.00682	0.00768	0.00934	0.0117	0.0134	0.0156	0.0175
in n-propanol	0.00568	0.00675	0.00804	0.00911	0.0107	0.0126	0.014	0.016	0.019
in water	0.000506	0.000628	0.000725	0.000804	0.000976	0.00119	0.00135	0.00153	0.00184
